Experimental data as given in US11793849B2, “Method of Chinese herbal medicine extract used for treating multiple diseases caused by drug resistant bacteria infection” (priority 2016, dated 2023).
Read-outs that look alike come from different tables or passages of the source.

Test system: MDRPA
Assay: MIC determination, microdilution broth method;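 also: broth microdilution per NCCLS recommendations, testing Pithecellobium clypearia water or ethanol extracts against multidrug-resistant Pseudomonas aeruginosa, with MIC50 and MIC90 derived statistically from individual MICs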
[1] = 20 MDRPAs, EA = 60% ethanol extract
[2] = 20 MDRPAs, EA = 95% ethanol extract
[3] = MDRPAs P1-P20, single use, EA=P. clypearia 10% ethanol extract
[4] = MDRPAs P1-P20, single use, EA=P. clypearia water extract
[5] = Pseudomonas aeruginosa, read-out: MIC (single use), strain P1, EA=P. clypearia 10% ethanol extract
[6] = Pseudomonas aeruginosa, read-out: MIC (single use), strain P1, EA=P. clypearia water extract
[7] = Pseudomonas aeruginosa, read-out: MIC (single use), strain P2, EA=P. clypearia 10% ethanol extract
[8] = Pseudomonas aeruginosa, read-out: MIC (single use), strain P2, EA=P. clypearia water extract
[9] = Pseudomonas aeruginosa, read-out: MIC (single use), strain P3, EA=P. clypearia 10% ethanol extract
[10] = Pseudomonas aeruginosa, read-out: MIC (single use), strain P3, EA=P. clypearia water extract
[11] = Pseudomonas aeruginosa, read-out: MIC (single use), strain P4, EA=P. clypearia 10% ethanol extract
[12] = Pseudomonas aeruginosa, read-out: MIC (single use), strain P4, EA=P. clypearia water extract
[13] = Pseudomonas aeruginosa, read-out: MIC (single use), strain P5, EA=P. clypearia 10% ethanol extract
[14] = Pseudomonas aeruginosa, read-out: MIC (single use), strain P5, EA=P. clypearia water extract
[15] = Pseudomonas aeruginosa, read-out: MIC (single use), strain P6, EA=P. clypearia 10% ethanol extract
[16] = Pseudomonas aeruginosa, read-out: MIC (single use), strain P6, EA=P. clypearia water extract
[17] = Pseudomonas aeruginosa, read-out: MIC (single use), strain P7, EA=P. clypearia 10% ethanol extract
[18] = Pseudomonas aeruginosa, read-out: MIC (single use), strain P7, EA=P. clypearia water extract
[19] = Pseudomonas aeruginosa, read-out: MIC (single use), strain P8, EA=P. clypearia 10% ethanol extract
[20] = Pseudomonas aeruginosa, read-out: MIC (single use), strain P8, EA=P. clypearia water extract
[21] = Pseudomonas aeruginosa, read-out: MIC (single use), strain P9, EA=P. clypearia 10% ethanol extract
[22] = Pseudomonas aeruginosa, read-out: MIC (single use), strain P9, EA=P. clypearia water extract
[23] = Pseudomonas aeruginosa, read-out: MIC (single use), strain P10, EA=P. clypearia 10% ethanol extract
[24] = Pseudomonas aeruginosa, read-out: MIC (single use), strain P10, EA=P. clypearia water extract
[25] = Pseudomonas aeruginosa, read-out: MIC (single use), strain P11, EA=P. clypearia 10% ethanol extract
[26] = Pseudomonas aeruginosa, read-out: MIC (single use), strain P11, EA=P. clypearia water extract
[27] = Pseudomonas aeruginosa, read-out: MIC (single use), strain P12, EA=P. clypearia 10% ethanol extract
[28] = Pseudomonas aeruginosa, read-out: MIC (single use), strain P12, EA=P. clypearia water extract
[29] = Pseudomonas aeruginosa, read-out: MIC (single use), strain P13, EA=P. clypearia 10% ethanol extract
[30] = Pseudomonas aeruginosa, read-out: MIC (single use), strain P13, EA=P. clypearia water extract
[31] = Pseudomonas aeruginosa, read-out: MIC (single use), strain P14, EA=P. clypearia 10% ethanol extract
[32] = Pseudomonas aeruginosa, read-out: MIC (single use), strain P14, EA=P. clypearia water extract
[33] = Pseudomonas aeruginosa, read-out: MIC (single use), strain P15, EA=P. clypearia 10% ethanol extract
[34] = Pseudomonas aeruginosa, read-out: MIC (single use), strain P15, EA=P. clypearia water extract
[35] = Pseudomonas aeruginosa, read-out: MIC (single use), strain P16, EA=P. clypearia 10% ethanol extract
[36] = Pseudomonas aeruginosa, read-out: MIC (single use), strain P16, EA=P. clypearia water extract
[37] = Pseudomonas aeruginosa, read-out: MIC (single use), strain P17, EA=P. clypearia 10% ethanol extract
[38] = Pseudomonas aeruginosa, read-out: MIC (single use), strain P17, EA=P. clypearia water extract
[39] = Pseudomonas aeruginosa, read-out: MIC (single use), strain P18, EA=P. clypearia 10% ethanol extract
[40] = Pseudomonas aeruginosa, read-out: MIC (single use), strain P18, EA=P. clypearia water extract
[41] = Pseudomonas aeruginosa, read-out: MIC (single use), strain P19, EA=P. clypearia 10% ethanol extract
[42] = Pseudomonas aeruginosa, read-out: MIC (single use), strain P19, EA=P. clypearia water extract
[43] = Pseudomonas aeruginosa, read-out: MIC (single use), strain P20, EA=P. clypearia 10% ethanol extract
[44] = Pseudomonas aeruginosa, read-out: MIC (single use), strain P20, EA=P. clypearia water extract
[45] = single use, 20 MDRPAs, section of the 10% ethanol extract
[46] = single use, 20 MDRPAs, section of the 60% ethanol extract
[47] = single use, 20 MDRPAs, section of the 95% ethanol extract

CCN1CCN(C(=O)N[C@@H](C(=O)N[C@@H]2C(=O)N3C(C(=O)O)=C(CSc4nnnn4C)CS[C@H]23)c2ccc(O)cc2)C(=O)C1=O [CFP, Cefoperazone]
128 µg/mL: MIC [5] | MIC [6]
256 µg/mL: MIC [7] | MIC [8] | MIC [29] | MIC [30] | MIC [39] | MIC [40]
8 µg/mL: MIC [11] | MIC [12] | MIC [23] | MIC [24] | MIC [25] | MIC [26] | MIC [31] | MIC [32]
8 to 512 µg/mL: MIC Range [1] | MIC Range [2] | MIC Range [3] | MIC Range [4]
512 µg/mL: MIC90 [1] | MIC90 [2] | MIC90 [3] | MIC90 [4] | MIC90 (Pseudomonas aeruginosa) | MIC [13] | MIC [14] | MIC [15] | MIC [16] | MIC [17] | MIC [18] | MIC [27] | MIC [28] | MIC90 [45] | MIC90 [46] | MIC90 [47]
16 µg/mL: MIC [9] | MIC [10] | MIC [19] | MIC [20] | MIC [37] | MIC [38]
1024 µg/mL: MIC (single use) (strain P16, EA=P. clypearia 10% ethanol extract) | MIC (single use) (strain P16, EA=P. clypearia water extract) | MIC (single use) (strain P20, EA=P. clypearia 10% ethanol extract) | MIC (single use) (strain P20, EA=P. clypearia water extract)
64 µg/mL: MIC50 [1] | MIC50 [2] | MIC50 [3] | MIC50 [4] | MIC50 (Pseudomonas aeruginosa) | MIC [21] | MIC [22] | MIC [33] | MIC [34] | MIC [41] | MIC [42] | MIC50 [45] | MIC50 [46] | MIC50 [47]
> 512 µg/mL: MIC [35] | MIC [36] | MIC [43] | MIC [44]

CC(C)(O/N=C(\C(=O)N[C@@H]1C(=O)N2C(C(=O)[O-])=C(C[n+]3ccccc3)CS[C@H]12)c1csc(N)n1)C(=O)O [CAZ, Ceftazidime]
8 µg/mL: MIC [21] | MIC [22]
256 µg/mL: MIC90 [1] | MIC90 [2] | MIC90 [3] | MIC90 [4] | MIC90 (Pseudomonas aeruginosa) | MIC [11] | MIC [12] | MIC [19] | MIC [20] | MIC [33] | MIC [34] | MIC [43] | MIC [44] | MIC90 [45] | MIC90 [46] | MIC90 [47]
32 µg/mL: MIC50 [1] | MIC50 [2] | MIC50 [3] | MIC50 [4] | MIC50 (Pseudomonas aeruginosa) | MIC [5] | MIC [6] | MIC [35] | MIC [36] | MIC [37] | MIC [38] | MIC50 [45] | MIC50 [46] | MIC50 [47]
512 µg/mL: MIC [15] | MIC [16]
64 µg/mL: MIC [7] | MIC [8] | MIC [13] | MIC [14] | MIC [17] | MIC [18] | MIC [27] | MIC [28] | MIC [39] | MIC [40]
2 to 512 µg/mL: MIC Range [1] | MIC Range [2] | MIC Range [3] | MIC Range [4]
4 µg/mL: MIC [9] | MIC [10] | MIC [23] | MIC [24] | MIC [41] | MIC [42]
2 µg/mL: MIC [25] | MIC [26]
16 µg/mL: MIC [29] | MIC [30] | MIC [31] | MIC [32]
